Laboratory results taken from patent publication US20090232786A1, “HERBAL COMPOSITION FOR CANCER TREATMENT” (priority 2001, published 2009).

What was measured:
[1] = target: T1, estrogen (E2) binding site on MCF-7 cell lines (Homo sapiens, UniProt P03372); test: Estrogen binding assay, 3H 17-β-estradiol displacement; conditions: MCF-7, 197 μM, 1 nM 3H E2, 3 hours
T1 construct: endogenous in cells; host or cells: MCF-7 breast cancer cells
T1 sequence (P03372 1-595): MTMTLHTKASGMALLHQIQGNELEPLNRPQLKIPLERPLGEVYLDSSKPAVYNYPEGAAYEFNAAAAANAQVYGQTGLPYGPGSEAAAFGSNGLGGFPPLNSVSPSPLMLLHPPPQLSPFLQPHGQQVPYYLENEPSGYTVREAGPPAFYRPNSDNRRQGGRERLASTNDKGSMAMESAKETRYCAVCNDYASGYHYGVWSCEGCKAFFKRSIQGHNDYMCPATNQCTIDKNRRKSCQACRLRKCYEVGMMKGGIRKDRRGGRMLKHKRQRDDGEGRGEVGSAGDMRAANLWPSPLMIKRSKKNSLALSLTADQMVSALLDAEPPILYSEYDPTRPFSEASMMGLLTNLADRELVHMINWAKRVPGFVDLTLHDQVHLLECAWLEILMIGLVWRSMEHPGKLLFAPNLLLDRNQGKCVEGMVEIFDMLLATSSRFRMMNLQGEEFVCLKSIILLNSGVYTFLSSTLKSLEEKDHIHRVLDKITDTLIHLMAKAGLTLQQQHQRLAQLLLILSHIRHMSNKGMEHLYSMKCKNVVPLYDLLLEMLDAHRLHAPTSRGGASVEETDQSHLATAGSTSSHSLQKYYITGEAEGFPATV
Protocol: The estrogen binding capacity of the herbal formula was investigated by assay. This assay was developed and run to determine if the herbal extracts that constitute the herbal formula have any binding activity towards the estrogen (E2) binding site on MCF-7 cell lines. The MCF-7 is a breast cancer cell line and was chosen because of the ability to express E2 binding sites.
^3H 17-β-estradiol (E2) was used at a final concentration in the wells of 1 nM in media. Samples were incubated for 3 hours after which the wells were aspirated and washed 3 times with warm PBS. Cell bound radioactivity was extracted with 300 μL EtOH which was added to each well and left to lyse for 20 min at room temperature. An aliquot was removed for counting, transferred to a counting plate and scintillant added and the plate counted in a Perkin Elmer MicroBeta.

serum PSA = test: Patient case studies: serum PSA; type: in vivo, human; conditions: Example 11; Casodex 50 mg once daily for three months; PSA before 41
Protocol: Serum PSA was measured to be 300. This patient then started hormone therapy including an oral administration of 100 mg of Androcur (Cyproterone Acetate) 3 times per day, and a subcutaneous injection of 3.6 mg of Zolodex (Goserelin Acetate Implant) once per three months. The prostate has been monitored since with serum PSA levels, varying between “28-62”.
In May 2001, the PSA level was measured to be 41. At that time, the patient stopped taking Androcur and Zolodex, and started to take Casodex 50 mg once daily. The treatment with Casodex continued for three months and follow-up blood tests indicated a serum PSA of 5.7.
From August 2001, this patient started to combine Casodex with an oral administration of the herbal formula of the present invention. The intake dosage of the herbal formula was 2070 mg per day. This combination treatment continued for two months.
From October 2001, the dosage of this herb formula was increased to 2760 mg per day. Following PSA level measurement was 2.3 in November 2001.
The patient in this case study was a person. […] The PSA was measured to be 21.
The prostate has been monitored approximately every 6 months. As the PSA reading was between “13-17” on occasions, when readings were high, antibiotics were prescribed for prostatitis. The PSA was measured to be 18.7 at August of 2001. […]

[2] = tested on: Prostaglandin E2 (PGE2) production in a mouse 3T3 fibroblast cell line; test: Anti-inflammatory assay: secreted PGE2 from stimulated 3T3 fibroblasts; type: cell-based; conditions: 3T3 cells, 500 μM, dilution 500
Source text: This assay was run to determine the effectiveness of the herbal formula to inhibit Prostaglandin E2 (PGE2) production in a mouse 3T3 fibroblast cell line.
The anti-inflammatory assay measures the level of PGE2 in stimulated mouse fibroblast 3T3 cell line after treatment with the herbal formula. The use of a stimulated cell line rather than using isolated enzyme systems gives more useful data.
PGE2 is formed in a variety of cells from PGH2, which itself is synthesized from arachiodonic acid by the enzyme prostaglandin synthetase. The assay measures secreted levels of PGE2 from the supernatant of the fibroblast cells.

PC-3 cell lines = test: PC3 cell cycle analysis by flow cytometry of propidium iodide stained cells; type: cell-based; conditions: PC-3, paclitaxol 10 ng/mL (FIG. 3)
Protocol: Cell cycle analysis was carried out using tablets/capsules of the present invention. The formulation was tested as a single tablet/capsule concentration in triplicate and as a two capsule concentration also in triplicate.
Tablets/capsules were weighed, crushed and extracted with 10 ml of methanol. The extracts were sonicated for 40 mins and then spun down at 4000 rpm. The supernatant was removed and 100 μL of this extract was used in the cell cycle analysis. A further aliquot of this extract was subjected to HPLC-MS analysis as described in Example 3 below. Cells were split into 16×25 cm^2 flasks at a low concentration and allowed to grow to 65-70% confluence (at the time of addition the cells were in log phase). Flasks were incubated for 24 hours and control flasks of control media (no additions), an ethanol (100 μL EtOH), a control methanol (100 μL MeOH) and paclitaxol (10 μL of 0.01 mg/mL=10 ng/mL) were also run.
Flow cytometry was performed on the fixed cells after washing in PBS and stained using propidium iodide (2% PI in 0.1% Triton X-100 containing 2 mg/mL Rnase A). A Becton Dickson FACSCaliber was used to assay the cells.

LNCap cell lines = test: LNCap cell cycle assay; type: cell-based; conditions: positive control (FIG. 7)
Protocol: A anti-cancer activity assay was conducted with the results presented in Table 3 wherein the herb formula represents a combination according to the present invention. LNCap is an androgen-dependent prostate cancer cell line.

HL60 cell lines = test: HL60 cell cycle assay; type: cell-based, human; conditions: HL60, positive control (FIG. 10)
Protocol: The bioactivity of the herb formula was assessed using HL60 cell lines. HL60 is a human promyelocytic leukemia cell line.

In the case of `O=c1c(-c2ccc(O)cc2)coc2cc(O)ccc12` [diadzein], the “displacement of 3H E2 from the E2 receptor” value [1] is reported as over 60%.

With `CC(O)(CS(=O)(=O)c1ccc(F)cc1)C(=O)Nc1ccc(C#N)c(C(F)(F)F)c1` (centres unmarked) [Casodex] the “serum PSA” value (serum PSA) was 5.7.

In the case of `CC(=O)Oc1ccccc1C(=O)O` [Aspirin], the “% Control (secreted PGE2)” value [2] is reported as 14.2%.

`CC(=O)O[C@H]1C(=O)[C@@]2(C)[C@H]([C@H](OC(=O)c3ccccc3)[C@]3(O)C[C@H](OC(=O)[C@H](O)[C@@H](NC(=O)c4ccccc4)c4ccccc4)C(C)=C1C3(C)C)[C@]1(OC(C)=O)CO[C@@H]1C[C@@H]2O` [Paclitaxol] was tested, and the “cells in the G0-G1 phase” value (PC-3 cell lines) was 1.16%, the “cells in the G2-M phase” value (PC-3 cell lines) was 71.89% and the “cells in the S phase” value (PC-3 cell lines) was 26.95%. For the same compound, the “effect on the cell cycle” value (LNCap cell lines) was “arresting of cells in G2-M” and the “effect on the cell cycle” value (HL60 cell lines) was “arrest the cells in the G2-M stage”.
